Laboratory results published in the NIST ThermoML archive (doi:10.1021/je900596d).
Numbers after ± are expanded uncertainties.

Details: 323.21 K, Fluid (supercritical or subcritical phases), Vibrating tube method

Compound: FC(F)=C(F)C(F)(F)F [hexafluoropropene]
- mass density (17.7 kPa): 0.97 ± 0.03 kg/m3
- mass density (21.7 kPa): 1.12 ± 0.03 kg/m3
- mass density (25.1 kPa): 1.38 ± 0.03 kg/m3
- mass density (28.9 kPa): 1.62 ± 0.03 kg/m3
- mass density (32.8 kPa): 1.83 ± 0.03 kg/m3
- mass density (36.6 kPa): 2.07 ± 0.03 kg/m3
- mass density (40.3 kPa): 2.22 ± 0.03 kg/m3
- mass density (44.1 kPa): 2.51 ± 0.03 kg/m3
- mass density (47.8 kPa): 2.68 ± 0.03 kg/m3
- mass density (51.6 kPa): 2.99 ± 0.03 kg/m3
- mass density (55.2 kPa): 3.08 ± 0.03 kg/m3
- mass density (58.9 kPa): 3.32 ± 0.03 kg/m3
- mass density (62.6 kPa): 3.51 ± 0.03 kg/m3
- mass density (66.1 kPa): 3.74 ± 0.03 kg/m3
- mass density (69.7 kPa): 3.92 ± 0.03 kg/m3
- mass density (73.2 kPa): 4.09 ± 0.03 kg/m3
- mass density (76.7 kPa): 4.26 ± 0.03 kg/m3
- mass density (80.2 kPa): 4.49 ± 0.03 kg/m3
- mass density (83.7 kPa): 4.72 ± 0.03 kg/m3
- mass density (87.1 kPa): 4.86 ± 0.03 kg/m3
- mass density (90.6 kPa): 5.07 ± 0.03 kg/m3
- mass density (94.4 kPa): 5.41 ± 0.03 kg/m3
- mass density (98.1 kPa): 5.54 ± 0.03 kg/m3
- mass density (101.5 kPa): 5.74 ± 0.03 kg/m3
- mass density (105.2 kPa): 6.02 ± 0.03 kg/m3
- mass density (112.5 kPa): 6.44 ± 0.03 kg/m3
- mass density (116.2 kPa): 6.58 ± 0.03 kg/m3
- mass density (119.7 kPa): 6.8 ± 0.03 kg/m3
- mass density (123.2 kPa): 7 ± 0.03 kg/m3
- mass density (126.7 kPa): 7.23 ± 0.03 kg/m3
- mass density (130.2 kPa): 7.42 ± 0.03 kg/m3
- mass density (133.8 kPa): 7.66 ± 0.03 kg/m3
- mass density (137.6 kPa): 7.92 ± 0.03 kg/m3
- mass density (141.6 kPa): 8.08 ± 0.03 kg/m3
- mass density (145.4 kPa): 8.32 ± 0.03 kg/m3
- mass density (149.3 kPa): 8.52 ± 0.04 kg/m3
- mass density (153.2 kPa): 8.77 ± 0.04 kg/m3
- mass density (157.1 kPa): 8.98 ± 0.04 kg/m3
- mass density (160.9 kPa): 9.22 ± 0.04 kg/m3
- mass density (164.8 kPa): 9.47 ± 0.04 kg/m3
- mass density (168.8 kPa): 9.71 ± 0.04 kg/m3
- mass density (172.6 kPa): 9.88 ± 0.04 kg/m3
- mass density (176.5 kPa): 10.13 ± 0.04 kg/m3
- mass density (180.3 kPa): 10.38 ± 0.04 kg/m3
- mass density (184.3 kPa): 10.62 ± 0.04 kg/m3
- mass density (188.1 kPa): 10.76 ± 0.04 kg/m3
- mass density (195.8 kPa): 11.28 ± 0.04 kg/m3
- mass density (199.7 kPa): 11.49 ± 0.04 kg/m3
- mass density (203.6 kPa): 11.86 ± 0.04 kg/m3
- mass density (207.4 kPa): 12.01 ± 0.04 kg/m3
- mass density (211.1 kPa): 12.24 ± 0.04 kg/m3
- mass density (215 kPa): 12.39 ± 0.04 kg/m3
- mass density (218.8 kPa): 12.6 ± 0.04 kg/m3
- mass density (222.7 kPa): 12.84 ± 0.04 kg/m3
- mass density (226.4 kPa): 13.16 ± 0.04 kg/m3
- mass density (230.2 kPa): 13.39 ± 0.04 kg/m3
- mass density (233.8 kPa): 13.5 ± 0.04 kg/m3
- mass density (237.7 kPa): 13.84 ± 0.04 kg/m3
- mass density (241.4 kPa): 14.08 ± 0.04 kg/m3
- mass density (245.2 kPa): 14.29 ± 0.04 kg/m3
- mass density (249 kPa): 14.46 ± 0.04 kg/m3
- mass density (252.7 kPa): 14.72 ± 0.04 kg/m3
- mass density (260.3 kPa): 15.25 ± 0.04 kg/m3
- mass density (268.1 kPa): 15.67 ± 0.04 kg/m3
- mass density (272.2 kPa): 15.98 ± 0.04 kg/m3
- mass density (276.4 kPa): 16.15 ± 0.04 kg/m3
- mass density (280.6 kPa): 16.35 ± 0.04 kg/m3
- mass density (284.7 kPa): 16.67 ± 0.04 kg/m3
- mass density (288.7 kPa): 16.87 ± 0.04 kg/m3
- mass density (292.9 kPa): 17.17 ± 0.04 kg/m3
- mass density (297.1 kPa): 17.47 ± 0.04 kg/m3
- mass density (301.3 kPa): 17.8 ± 0.04 kg/m3
- mass density (305.4 kPa): 17.98 ± 0.04 kg/m3
- mass density (309.6 kPa): 18.21 ± 0.04 kg/m3
- mass density (313.9 kPa): 18.45 ± 0.04 kg/m3
- mass density (318 kPa): 18.81 ± 0.04 kg/m3
- mass density (322 kPa): 19 ± 0.04 kg/m3
- mass density (326.2 kPa): 19.25 ± 0.04 kg/m3
- mass density (330.3 kPa): 19.52 ± 0.04 kg/m3
- mass density (334.5 kPa): 19.75 ± 0.04 kg/m3
- mass density (338.7 kPa): 20.05 ± 0.04 kg/m3
- mass density (342.9 kPa): 20.26 ± 0.04 kg/m3
- mass density (347 kPa): 20.58 ± 0.04 kg/m3
- mass density (351.2 kPa): 20.86 ± 0.04 kg/m3
- mass density (355.4 kPa): 21.13 ± 0.04 kg/m3
- mass density (359.5 kPa): 21.34 ± 0.04 kg/m3
- mass density (363.6 kPa): 21.63 ± 0.04 kg/m3
- mass density (367.7 kPa): 21.82 ± 0.04 kg/m3
- mass density (371.9 kPa): 22.12 ± 0.04 kg/m3
- mass density (376 kPa): 22.33 ± 0.04 kg/m3
- mass density (380 kPa): 22.69 ± 0.05 kg/m3
- mass density (384.1 kPa): 22.94 ± 0.05 kg/m3
- mass density (388.2 kPa): 23.18 ± 0.05 kg/m3
- mass density (392.3 kPa): 23.49 ± 0.05 kg/m3
- mass density (396.4 kPa): 23.69 ± 0.05 kg/m3
- mass density (404.4 kPa): 24.26 ± 0.05 kg/m3
- mass density (408.5 kPa): 24.53 ± 0.05 kg/m3
- mass density (412.5 kPa): 24.78 ± 0.05 kg/m3
- mass density (416.5 kPa): 25 ± 0.05 kg/m3
- mass density (420.6 kPa): 25.28 ± 0.05 kg/m3
- mass density (424.6 kPa): 25.54 ± 0.05 kg/m3
- mass density (432.5 kPa): 26.08 ± 0.05 kg/m3
- mass density (436.6 kPa): 26.31 ± 0.05 kg/m3
- mass density (444.4 kPa): 26.88 ± 0.05 kg/m3
- mass density (448.4 kPa): 27.13 ± 0.05 kg/m3
- mass density (487.5 kPa): 29.75 ± 0.05 kg/m3
- mass density (499 kPa): 30.39 ± 0.05 kg/m3
- mass density (510.4 kPa): 31.18 ± 0.05 kg/m3
- mass density (521.8 kPa): 31.98 ± 0.06 kg/m3
- mass density (533.3 kPa): 32.74 ± 0.06 kg/m3
- mass density (544.4 kPa): 33.53 ± 0.06 kg/m3
- mass density (555.6 kPa): 34.31 ± 0.06 kg/m3
- mass density (566.8 kPa): 35.09 ± 0.06 kg/m3
- mass density (577.8 kPa): 35.78 ± 0.06 kg/m3
- mass density (588.8 kPa): 36.55 ± 0.06 kg/m3
- mass density (599.7 kPa): 37.33 ± 0.06 kg/m3
- mass density (610.7 kPa): 38.21 ± 0.06 kg/m3
- mass density (621.5 kPa): 38.96 ± 0.06 kg/m3
- mass density (632.3 kPa): 39.67 ± 0.06 kg/m3
- mass density (643 kPa): 40.4 ± 0.07 kg/m3
- mass density (653.8 kPa): 41.25 ± 0.07 kg/m3
- mass density (664.3 kPa): 42.12 ± 0.07 kg/m3
- mass density (675 kPa): 42.78 ± 0.07 kg/m3
- mass density (687.2 kPa): 43.61 ± 0.07 kg/m3
- mass density (697.7 kPa): 44.47 ± 0.07 kg/m3
- mass density (708.1 kPa): 45.16 ± 0.07 kg/m3
- mass density (721.9 kPa): 46.18 ± 0.07 kg/m3
- mass density (735.5 kPa): 47.22 ± 0.07 kg/m3
- mass density (747.6 kPa): 48.18 ± 0.07 kg/m3
- mass density (759.6 kPa): 49.01 ± 0.07 kg/m3
- mass density (769.7 kPa): 49.86 ± 0.08 kg/m3
- mass density (784.6 kPa): 50.99 ± 0.08 kg/m3
- mass density (799.5 kPa): 52.13 ± 0.08 kg/m3
- mass density (814.1 kPa): 53.28 ± 0.08 kg/m3
